In patent US11427548B2 (Arvinas Operations, Inc., priority 2015, dated 2022) one finds Dmax and DC50 data, which are given here for ten molecules.

The assay deals with T1, Androgen Receptor (Homo sapiens, UniProt P10275).
T1 construct: endogenous in cells; host or cells: VCaP cells
T1 sequence (P10275 1-920): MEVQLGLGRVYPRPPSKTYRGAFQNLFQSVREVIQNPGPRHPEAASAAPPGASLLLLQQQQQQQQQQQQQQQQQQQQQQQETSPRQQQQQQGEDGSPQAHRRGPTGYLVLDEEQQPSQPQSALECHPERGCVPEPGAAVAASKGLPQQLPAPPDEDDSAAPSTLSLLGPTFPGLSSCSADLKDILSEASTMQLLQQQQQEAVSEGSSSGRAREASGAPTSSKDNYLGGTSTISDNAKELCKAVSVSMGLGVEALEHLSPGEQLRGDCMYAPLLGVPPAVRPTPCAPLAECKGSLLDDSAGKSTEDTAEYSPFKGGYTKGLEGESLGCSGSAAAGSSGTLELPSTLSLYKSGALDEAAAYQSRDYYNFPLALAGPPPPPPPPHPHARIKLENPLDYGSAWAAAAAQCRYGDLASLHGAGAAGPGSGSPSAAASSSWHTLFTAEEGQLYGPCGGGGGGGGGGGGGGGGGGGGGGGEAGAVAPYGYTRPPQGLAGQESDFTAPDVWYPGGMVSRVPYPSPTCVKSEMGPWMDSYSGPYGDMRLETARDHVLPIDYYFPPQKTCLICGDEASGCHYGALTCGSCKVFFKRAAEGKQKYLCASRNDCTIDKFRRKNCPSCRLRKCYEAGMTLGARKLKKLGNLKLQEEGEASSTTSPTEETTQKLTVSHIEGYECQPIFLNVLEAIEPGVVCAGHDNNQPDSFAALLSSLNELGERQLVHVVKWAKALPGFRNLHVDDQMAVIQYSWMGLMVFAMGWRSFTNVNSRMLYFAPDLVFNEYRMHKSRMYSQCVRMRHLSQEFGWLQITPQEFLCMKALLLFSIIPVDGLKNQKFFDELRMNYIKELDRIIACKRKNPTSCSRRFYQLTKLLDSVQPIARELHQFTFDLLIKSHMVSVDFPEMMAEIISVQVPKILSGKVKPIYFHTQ
Nature of the assay: Androgen Receptor ELISA assay (PathScan AR ELISA) in VCaP cells: AR degradation, Dmax and DC50. Type of assay: cell-based. The settings on record: VCaP cells (Table 32); for Dmax: VCaP, highest percentage of Androgen Receptor degradation observed, read-out: VCaP Dmax (%); for DC50: concentration that caused 50% Androgen Receptor degradation, read-out: VCaP DC50. In outline:
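VCaP cells in phenol red-free RPMI with 5% charcoal-stripped FBS were grown at least 3 days, then given compound as 7 half-log doses in 0.1% DMSO with 0.1 nM R1881 for 24 h. Lysates went into a sandwich AR ELISA with TMB read at 450 nm.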
For orientation: An ELISA detects its analyte on a solid surface through an enzyme-linked reagent.

A value given as a limit tells only on which side of the number the result lay.

The term Dmax denotes the greatest extent of degradation seen. By DC50 is commonly meant the midpoint of the concentration-degradation curve. For `Cc1ncsc1-c1ccc(CNC(=O)[C@@H]2C[C@@H](O)CN2C(=O)[C@@H](NC(=O)COCCCCCOc2ccc(C(=O)N[C@H]3C(C)(C)[C@H](Oc4ccc(C#N)c(C(F)(F)F)c4)C3(C)C)cc2)C(C)(C)C)cc1` [Example 155, (2S,4R)-1-[(2S)-3,3-dimethyl-2-(2-{[5-(4-{[trans-3-[4-cyano-3-(trifluoromethyl)phenoxy]-2,2,4,4-tetramethylcyclobutyl]carbamoyl}phen-oxy)pentyl]oxy}acetamido)butanoyl]-4-hydroxy-N-{[4-(4-methyl-1,3-thiazol-5-yl)phenyl]methyl}pyrrolidine-2-carboxamide], the maximal degradation (Dmax) is greater than 71% and the DC50 was less than 50 nM.
For the molecule `Cc1ncsc1-c1ccc(CNC(=O)[C@@H]2C[C@@H](O)CN2C(=O)[C@@H](NC(=O)CO[C@H](C)CCCCOc2ccc(C(=O)N[C@H]3C(C)(C)[C@H](Oc4ccc(C#N)c(Cl)c4)C3(C)C)cc2)C(C)(C)C)cc1` [Example 158, (2S,4R)-1-[(2S)-3,3-dimethyl-2-(2-{[(2R)-6-(4-{[trans-3-(3-chloro-4-cyanophenoxy)-2,2,4,4-tetramethylcyclobutyl]carbamoyl}phen-oxy)hexan-2-yl]oxy}acetamido)butanoyl]-4-hydroxy-N-{[4-(4-methyl-1,3-thiazol-5-yl)phenyl]methyl}pyrrolidine-2-carboxamide], the maximal degradation (Dmax) is greater than 71% and the DC50 is less than 50 nM.
Take `Cc1ncsc1-c1ccc(CNC(=O)[C@@H]2C[C@@H](O)CN2C(=O)[C@@H](NC(=O)CO[C@@H](C)CCCCOc2ccc(C(=O)N[C@H]3C(C)(C)[C@H](Oc4ccc(C#N)c(Cl)c4)C3(C)C)cc2)C(C)(C)C)cc1` [Example 159, (2S,4R)-1-[(2S)-3,3-dimethyl-2-(2-{[(2S)-6-(4-{[trans-3-(3-chloro-4-cyanophenoxy)-2,2,4,4-tetramethylcyclobutyl]carbamoyl}phen-oxy)hexan-2-yl]oxy}acetamido)butanoyl]-4-hydroxy-N-{[4-(4-methyl-1,3-thiazol-5-yl)phenyl]methyl}pyrrolidine-2-carboxamide]: the Dmax was greater than 71% and the half-maximal degradation concentration (DC50) was less than 50 nM.
Turning to `Cc1ncsc1-c1ccc(CNC(=O)[C@@H]2C[C@@H](O)CN2C(=O)[C@@H](NC(=O)COCCCC[C@@H](C)Oc2ccc(C(=O)N[C@H]3C(C)(C)[C@H](Oc4ccc(C#N)c(Cl)c4)C3(C)C)cc2)C(C)(C)C)cc1` [Example 160, (2S,4R)-1-[(2S)-3,3-dimethyl-2-(2-{[(5S)-5-(4-{[trans-3-(3-chloro-4-cyanophenoxy)-2,2,4,4-tetramethylcyclobutyl]carbamoyl}phen-oxy)hexyl]oxy}acetamido)butanoyl]-4-hydroxy-N-{[4-(4-methyl-1,3-thiazol-5-yl)phenyl]methyl}pyrrolidine-2-carboxamide], the Dmax was greater than 71% and the DC50 was less than 50 nM.
The like results for `Cc1ncsc1-c1ccc(CNC(=O)[C@@H]2C[C@@H](O)CN2C(=O)[C@@H](NC(=O)COCCCC[C@H](C)Oc2ccc(C(=O)N[C@H]3C(C)(C)[C@H](Oc4ccc(C#N)c(Cl)c4)C3(C)C)cc2)C(C)(C)C)cc1` [Example 161, (2S,4R)-1-[(2S)-3,3-dimethyl-2-(2-{[(5R)-5-(4-{[trans-3-(3-chloro-4-cyanophenoxy)-2,2,4,4-tetramethylcyclobutyl]carbamoyl}phen-oxy)hexyl]oxy}acetamido)butanoyl]-4-hydroxy-N-{[4-(4-methyl-1,3-thiazol-5-yl)phenyl]methyl}pyrrolidine-2-carboxamide] were, in that order, greater than 71% and less than 50 nM.
For the molecule `CC(C)(C)[C@H](NC(=O)COCCOCCCCOc1ccc(C(=O)N[C@H]2C(C)(C)[C@H](Oc3ccc(C#N)c(Cl)c3)C2(C)C)cc1)C(=O)N1C[C@H](O)C[C@H]1C(=O)NCc1ccc(-c2cncs2)cc1` [Example 162, (2S,4R)-1-[(2S)-3,3-dimethyl-2-(2-{2-[4-(4-{[trans-3-(3-chloro-4-cyanophenoxy)-2,2,4,4-tetramethylcyclobutyl]carbamoyl}phenoxy)butoxy]ethoxy}acetamido)butanoyl]-4-hydroxy-N-{[4-(1,3-thiazol-5-yl)phenyl]methyl}pyrrolidine-2-carboxamide], the greatest degradation seen (Dmax) was greater than 71% and the 50% degradation concentration (DC50) is less than 50 nM.
For the molecule `Cc1ncoc1-c1ccc(CNC(=O)[C@@H]2C[C@@H](O)CN2C(=O)[C@@H](NC(=O)COCCCCOc2ccc(C(=O)N[C@H]3C(C)(C)[C@H](Oc4ccc(C#N)c(Cl)c4)C3(C)C)cc2)C(C)(C)C)cc1` [Example 164, (2S,4R)-1-[(2S)-3,3-dimethyl-2-{2-[4-(4-{[trans-3-(3-chloro-4-cyanophenoxy)-2,2,4,4-tetramethylcyclobutyl]carbamoyl}phenoxy)butoxy]acetamido}butanoyl]-4-hydroxy-N-{[4-(4-methyl-1,3-oxazol-5-yl)phenyl]methyl}pyrrolidine-2-carboxamide], the Dmax was greater than 71% and the DC50 is less than 50 nM.
The like results for `Cc1ncsc1-c1ccc(CNC(=O)[C@@H]2C[C@@H](O)CN2C(=O)[C@@H](NC(=O)COCCCCOc2ccc(C(=O)N[C@H]3C(C)(C)[C@H](Oc4ccc(C#N)c(C(F)(F)F)c4)C3(C)C)cc2)C(C)(C)C)cc1` [Example 165, (2S,4R)-1-[(2S)-3,3-dimethyl-2-{2-[4-(4-{[trans-3-[4-cyano-3-(trifluoromethyl)phenoxy]-2,2,4,4-tetramethylcyclobutyl]carbamoyl}phenoxy)butoxy]acetamido}butanoyl]-4-hydroxy-N-{[4-(4-methyl-1,3-thiazol-5-yl)phenyl]methyl}pyrrolidine-2-carboxamide] were, in that order, greater than 71% and less than 50 nM.
The like results for `Cc1ncoc1-c1ccc(CNC(=O)[C@@H]2C[C@@H](O)CN2C(=O)[C@@H](NC(=O)COCCCCOc2ccc(C(=O)N[C@H]3C(C)(C)[C@H](Oc4ccc(C#N)c(C(F)(F)F)c4)C3(C)C)cc2)C(C)(C)C)cc1` [Example 166, (2S,4R)-1-[(2S)-3,3-dimethyl-2-{2-[4-(4-{[trans-3-[4-cyano-3-(trifluoromethyl)phenoxy]-2,2,4,4-tetramethylcyclobutyl]carbamoyl}phenoxy)butoxy]acetamido}butanoyl]-4-hydroxy-N-{[4-(4-methyl-1,3-oxazol-5-yl)phenyl]methyl}pyrrolidine-2-carboxamide] were, in that order, 51 to 70% and less than 50 nM.
For `Cc1ncsc1-c1ccc([C@H](C)NC(=O)[C@@H]2C[C@@H](O)CN2C(=O)[C@@H](NC(=O)COCCCCOc2ccc(C(=O)N[C@H]3C(C)(C)[C@H](Oc4ccc(C#N)c(Cl)c4)C3(C)C)cc2)C(C)(C)C)cc1` [Example 167, (2S,4R)-1-[(2S)-3,3-dimethyl-2-{2-[4-(4-{[trans-3-(3-chloro-4-cyanophenoxy)-2,2,4,4-tetramethylcyclobutyl]carbamoyl}phenoxy)butoxy]acetamido}butanoyl]-4-hydroxy-N-[(1S)-1-[4-(4-methyl-1,3-thiazol-5-yl)phenyl]ethyl]pyrrolidine-2-carboxamide], the maximal degradation (Dmax) is greater than 71% and the half-maximal degradation concentration (DC50) was less than 50 nM.
